Measured values taken from patent US20240415819A1, “MACROCYCLIC COMPOUNDS AS PROTEASOME SUBUNIT BETA TYPE-5 INHIBITORS” (Lead Discovery Center GmbH, priority 2021, published 2024).
pIC50: −log10 of the molar value.

What was measured:
HT-29 cells = assay: CellTiter-Glo luminescent cell viability assay with HT-29 cells (72h incubation); assay type: cell-based, human; settings: Homo sapiens, HT-29, HT29 cells, read-out: CTG HT29
Description: Cell Titer Glo Viability Assay with HT-29 Cells (72h Incubation) The CellTiter-Glo Luminescent Cell Viability Assay (Promega) is a homogeneous method of determining the number of viable cells in culture. It is based on quantification of ATP, indicating the presence of metabolically active cells. On day 1 400 HT-29 cells per well are seeded in white 384well plates (Greiner, #781080) in 25 μl cell culture medium (DMEM (PAN-Biotech #P04-03590)+10% FCS+glutamine). After incubation for 24 h at 37° C./5% CO2 compounds or DMSO are added at different concentrations by Echo Liquid Handling Technology. Cells are further incubated in humidified chambers for 72 h at 37° C. and 5% CO2. Cells treated with the compound vehicle DMSO are used as positive controls and cells treated with 10 μM Staurosporine serve as negative controls. At day 5-72h after compound addition—the CellTiter Glo Reagent is prepared according to the instructions of the kit (Promega Inc.): Reagent is mixed 1:1 with cell culture medium. Thereon, mixture and assay plates are equilibrated at room temperature for 20 min. Equal volumes of the reagent-medium-mixture is added to the volume of culture medium present in each well. The plates are mixed at […] for 2 minutes on an orbital shaker. The microplates are then incubated at room temperature for 10 minutes for stabilization of the luminescent signal. Following incubation the luminescence is recorded on a Victor microplate reader (Perkin Elmer) using a 200 ms integration time. The data is then analyzed with Excel using the XLFIT Plugin (dose response Fit 205) for IC50-determination. As quality control the Z′-factor is calculated from 16 positive and negative control values. […] Inhibition is indicated as IC50 [nM] (“-”=not measured).

[1] = molecular target: T1, β5 subunit of the human constitutive proteasome (CPS) (Homo sapiens, UniProt P28074); assay: β5 inhibition assay, human constitutive proteasome (Suc-LLVY-AMC); assay type: biochemical; settings: IC50 class, Suc-LLVY-AMC substrate
T1 construct: purchased Boston Biochem E-360
Description: The enzymatic activity of the β5 subunit of the human constitutive proteasome (CPS) is analyzed. In another assay, which differs from the assay of the human constitutive proteasome only in using the human immunoproteasome (IPS) the enzymatic activity of the β5 subunit of the human immunoproteasome (IPS) is analyzed. […] Inhibition is indicated as IC50 [nM] (“-”=not measured).

[2] = molecular target: T2, β5 subunit of the human immunoproteasome (IPS) (Homo sapiens, UniProt P28062); assay: β5 inhibition assay, human immunoproteasome (Suc-LLVY-AMC); assay type: biochemical; settings: IC50 class, Suc-LLVY-AMC substrate
T2 construct: purchased Boston Biochem E-370
Description: The enzymatic activity of the β5 subunit of the human constitutive proteasome (CPS) is analyzed. In another assay, which differs from the assay of the human constitutive proteasome only in using the human immunoproteasome (IPS) the enzymatic activity of the β5 subunit of the human immunoproteasome (IPS) is analyzed. Incubation of the enzyme with its fluorogenic substrate Suc-LLVY-AMC leads to liberation of the fluorescent dye AMC which can be measured with a suitable plate reader. • 100 mM HEPES pH7.5 • 50 mM NaCl • 0.02% SDS • 1 mM DTT (add fresh) • Victor X5 (Perkin Elmer) • Label: Umbeliferone (0.1s) • Excitation wavelength: 355 nm • Emission wavelength: 460 nm • 4 μl human cPS or IPS enzyme in assay buffer (final assay concentration 1 nM) or 4 μl assay buffer for negative controls • Compound addition via acoustic dispenser (Echo 520, Labcyte) • Mix and incubate @ RT for 10 min • 4 μl Suc-LLVY-AMC substrate (final assay concentration 22.6 μM) • Mix and incubate @ RT for 4 h (dark) • Stop reaction with 4 μl Bortezomib (final assay concentration 1 μM) • 15 min @ RT • Measure (Excitation 355 nm; Emission 460 nm)

[3] = system: A549 (human lung carcinoma cell line); assay: Glo assay of A549 cells (Table 3; ProteasomeGlo plating scheme); assay type: cell-based; settings: Homo sapiens; A549 cells; read-out: PGLo A549
Description: Inhibition is indicated as IC50 [nM] (“-”=not measured). […] • Chymotrypsin-Like Cell-Based Proteasome-GloTM Assay (Promega; […]) • Cell culture 384-well plates (Greiner BioOne; 781080) • Dispensing cassette, MultiDrop Standard tube dispensing cassette (Thermo Scientific; 24072670) • DPBS (Pan BioTech; P04-36500) • Cell culture 384-well plates (Greiner BioOne; 781080) • CPD source plate: diamond-shape plate (Labcyte; LP-0200) • Intermediate plate (Labcyte; P-05525) [table] • a. Remove the plates with cells from the incubator. • b. Take all the plates including the compound plate, intermediate plate and Staurosporine plate to the ECHO. • c. Click on “Open” in the ECHO software and select the protocol “QLI5_25ul_30 uM-Grenier”. • d. Follow the on-screen prompts and instructions once you click “Start” to insert the compound plate, intermediate plate and destination plates. • e. Change the final number of destination plates on the program. • f. Follow the on-screen prompts and instructions once you click “Start” to load the Staurosporine and destination plates. • g. Once all the compounds, DMSO and Staurosporine have been transferred, place the destination plates in a wet tissue box. • h. Place the destination plates back into the incubator and incubate at 37° C., 5% CO2 for 105 minutes. • i. Re-seal all the compound+Stauro diamond and intermediate plates and store in the dark. Chymotrypsin like ProteasomeGlo Assay • 1. Thaw the components of the ProteasomeGlo assay at room temperature including the ProteasomeGlo Buffer, the lyophilized Luciferin Detection Reagent and the Suc-LLVY-Glo Substrate. • 2. Reconstitute the Luciferin Detection Reagent in the amber coloured bottle by adding 50 ml of the ProteasomeGlo Buffer. • 3. Vortex the Suc-LLVY-Glo Substrate briefly to reconstitute the Substrate well. • 4. Spin down the Substrate and add 250 μl of the Substrate to the reconstituted Luciferin Detection Reagent from step 2. • 5. Briefly vortex the amber bottle with the mix to prepare a homogenous solution. • 6. Place the mix prepared in step 5 to sit at room temperature for 60 minutes. • 7. After 60 minutes, pipette 25 μl of the mix from step 5 into all wells with the cells. • 8. Shake the plates for 2-5 minutes to ensure the complete mixing of the ProteasomeGlo reagent with the cells. • 9. Leave the plates in the dark for 10-15 minutes. • 10. Measure the luminescence read-out using the Viktor and the protocol “Luminescence_384Well_0.2 sec”. (Note: The Protoeasome-GloTM Reagent (combined Proteasome-GloTM Substrate, Proteasome-GloTM Buffer and Luciferin Detection Reagent) can be stored at 4° C. or -20° C. for 1 month with minimal loss of activity.)

SMILES	pIC50 (HT-29 cells)	other results
Cc1ccc2cc1CNC(=O)C(CCc1ccccc1)NC(=O)CCC(=O)N1CCCC(CCO2)C1 (stereo not drawn) [Compound 495, 5^4-methyl-9-phenethyl-4-oxa-7,10-diaza-1(3,1)-piperidina-5(1,3)-benzenacyclotetradecaphane-8,11,14-trione]	6.30 to 7.00	
Cc1ccc2cc1CNC(=O)[C@H](CCc1ccccc1)NC(=O)[C@@H](NC(=O)CCNC(=O)C1CCC3(CCOCC3)CC1)CC(=O)N1CCCC(CCO2)C1 (stereo partly drawn) [Compound 576]		pIC50 [1]: > 7.00; pIC50 [2]: > 7.00
CC(=O)N[C@H]1CC(=O)NCCOc2ccc(C)c(c2)CNC(=O)[C@H](CCc2ccccc2)NC1=O [Compound 252, N-((8S,11S)-1^4-methyl-6,9,12-trioxo-11-phenethyl-2-oxa-5,10,13-triaza-1(1,3)-benzenacyclotetradecaphane-8-yl)acetamide]	6.30 to 7.00	
CC(=O)N[C@H]1CC(=O)N2CCCC(CCOc3ccc(C)c(c3)CNC(=O)C(c3cnn(CCS(=O)(=O)O)c3)NC1=O)C2 (stereo partly drawn) [Compound 572, N-(4-((12S)-12-acetamido-5^4-methyl-8,11,14-trioxo-4-oxa-7,10-diaza-1(3,1)-piperidina-5(1,3)-benzenacyclotetradecaphane-9-yl)-1H-pyrazol-1-yl)ethane-1-sulfonic acid]	6.30 to 7.00	
CC(=O)N[C@H]1CC(=O)N2CCC(CC2)Oc2ccc(C)c(c2)CNC(=O)[C@H](CCc2ccccc2)NC1=O [Compound 254, N-((7S,10S)-3^4-methyl-6,9,12-trioxo-7-phenethyl-2-oxa-5,8-diaza-1(4,1)-piperidina-3(1,3)-benzenacyclododecaphane-10-yl)acetamide]	6.30 to 7.00	
Cc1ccc2cc1CNC(=O)[C@H](CCc1ccccc1)NC(=O)[C@@H](NC(=O)Cc1ccc(N)cc1)CC(=O)N1CCC[C@@H](CCO2)C1 [Compound 173, 2-(4-aminophenyl)-N-((13S,9S,12S)-5^4-methyl-8,11,14-trioxo-9-phenethyl-4-oxa-7,10-diaza-1(3,1)-piperidina-5(1,3)-benzenacyclotetradecaphane-12-yl)acetamide]	6.30 to 7.00	
Cc1ccc2cc1CNC(=O)[C@H](CCc1ccccc1)NC(=O)[C@@H](NC(=O)CCOCCCC1CCCC1)CC(=O)N1CCCC(CCO2)C1 (stereo partly drawn) [Compound 620, 3-(3-cyclopentylpropoxy)-N-((9S,12S)-5^4-methyl-8,11,14-trioxo-9-phenethyl-4-oxa-7,10-diaza-1(3,1)-piperidina-5(1,3)-benzenacyclotetradecaphane-12-yl)propanamide]		pIC50 [1]: > 7.00; pIC50 [2]: > 7.00; pIC50 [3]: > 7.00
CC(=O)N[C@H]1CC(=O)N2CC3CC(Oc4ccc(C)c(c4)CNC(=O)[C@H](CCc4ccccc4)NC1=O)C3C2 (stereo partly drawn) [Compound 298, N-(3^4-methyl-6,9,12-trioxo-7-phenethyl-2-oxa-13,5,8-triaza-1(6,3)-bicyclo[3.2.0]heptana-3(1,3)-benzenacyclododecaphane-10-yl)acetamide]	6.30 to 7.00	
Cc1ccc2cc1CNC(=O)[C@H](CCc1ccccc1)NC(=O)CCCCCC(=O)N1CCCC(CCO2)C1 (stereo partly drawn) [Compound 22, (9S)-5^4-methyl-9-phenethyl-4-oxa-7,10-diaza-1(3,1)-piperidina-5(1,3)-benzenacycloheptadecaphane-8,11,17-trione]	5.30 to 6.00	
Cc1ccc2cc1CNC(=O)[C@H](CCc1ccccc1)NC(=O)[C@@H](NC(=O)Cc1cccc(Cl)c1)CC(=O)N1CCCC(CCO2)C1 (stereo partly drawn) [Compound 61, 2-(3-chlorophenyl)-N-((9S,12S)-54-methyl-8,11,14-trioxo-9-phenethyl-4-oxa-7,10-diaza-1(3,1)-piperidina-5(1,3)-benzenacyclotetradecaphane-12-yl)acetamide]	> 7.00	

More lines, main results first:

pIC50 (HT-29 cells)	SMILES	other results
> 7.00	Cc1cccc(CC(=O)N[C@H]2CC(=O)N3CCCC(CCOc4ccc(C)c(c4)CNC(=O)[C@H](CCc4ccccc4)NC2=O)C3)c1 (stereo partly drawn) [Compound 62, N-((9S,12S)-5^4-methyl-8,11,14-trioxo-9-phenethyl-4-oxa-7,10-diaza-1(3,1)-piperidina-5(1,3)-benzenacyclotetradecaphane-12-yl)-2-(m-tolyl)acetamide]	
> 7.00	CC(=O)N[C@H]1CC(=O)N2CCCC(CCOc3ccc(C)c(c3)CNC(=O)C(CCc3ccccc3)NC1=O)C2 (stereo partly drawn) [Compound 550, N-((12S)-5^4-methyl-8,11,14-trioxo-9-phenethyl-4-oxa-7,10-diaza-1(3,1)-piperidina-5(1,3)-benzenacyclotetradecaphane-12-yl)acetamide]	
> 7.00	Cc1ccc2cc1CNC(=O)[C@H](CCc1ccccc1)NC(=O)[C@@H](NC(=O)Cc1ccc(N)cc1)CC(=O)N1CCC[C@H](CCO2)C1 [Compound 172, 2-(4-aminophenyl)-N-((13R,9S,12S)-5^4-methyl-8,11,14-trioxo-9-phenethyl-4-oxa-7,10-diaza-1(3,1)-piperidina-5(1,3)-benzenacyclotetradecaphane-12-yl)acetamide]	
> 7.00	Cc1ccc2cc1CNC(=O)C(CCc1cnccn1)NC(=O)[C@@H](NC(=O)[C@@H](C)c1ccccc1)CC(=O)N1CCCC(CCO2)C1 (stereo partly drawn) [Compound 107, (2S)—N-((12S)-5^4-methyl-8,11,14-trioxo-9-(2-(pyrazin-2-yl)ethyl)-4-oxa-7,10-diaza-1(3,1)-piperidina-5(1,3)-benzenacyclotetradecaphane-12-yl)-2-phenylpropanamide]	
> 7.00	Cc1ccc2cc1CNC(=O)[C@H](CCc1ccccc1)NC(=O)[C@@H](NC(=O)c1cccnc1)CC(=O)N1CCCC(CCO2)C1 (stereo partly drawn) [Compound 41, N-((9S,12S)-5^4-methyl-8,11,14-trioxo-9-phenethyl-4-oxa-7,10-diaza-1(3,1)-piperidina-5(1,3)-benzenacyclotetradecaphane-12-yl)nicotinamide]	
